In the CheMixHub ionic liquid set:

Assay: xn = mol fraction of the nth substance listed

C[NH2+]CCC=C1c2ccccc2CCc2ccccc21.[Cl-] + CCCC[n+]1ccn(C)c1.[Br-] + O
viscosity [mPa·s], 100 kPa
Details	288.15 K	298.15 K	308.15 K	318.15 K
x1 = 0.0001975, x2 = 0.0001801	1.159	0.927	0.763	0.646
x1 = 0.0002159, x2 = 0.00126	1.172	0.944	0.778	0.661
x1 = 0.0002212, x2 = 0.0007201	1.165	0.934	0.77	0.654
x1 = 0.0005439, x2 = 0.0001801	1.169	0.936	0.771	0.655
x1 = 0.0005594, x2 = 0.001259	1.182	0.953	0.787	0.671
x1 = 0.0005644, x2 = 0.0007199	1.176	0.943	0.779	0.664
x1 = 0.0009069, x2 = 0.0007196	1.187	0.952	0.788	0.674
x1 = 0.0009097, x2 = 0.00018	1.18	0.946	0.78	0.664
x1 = 0.0009344, x2 = 0.001259	1.193	0.963	0.796	0.68
x1 = 0.001275, x2 = 0.001258	1.204	0.973	0.805	0.689
x1 = 0.001278, x2 = 0.0001799	1.192	0.956	0.789	0.673
x1 = 0.001293, x2 = 0.0007194	1.199	0.961	0.797	0.682
x1 = 0.001648, x2 = 0.0007191	1.211	0.971	0.806	0.691
x1 = 0.001659, x2 = 0.0001799	1.204	0.967	0.798	0.681
x1 = 0.001665, x2 = 0.001258	1.216	0.984	0.814	0.698
x1 = 0.002, x2 = 0.0001798	1.217	0.978	0.807	0.689
x1 = 0.002031, x2 = 0.0007188	1.224	0.982	0.815	0.699
x1 = 0.002035, x2 = 0.001257	1.229	0.995	0.823	0.707
x1 = 0.002363, x2 = 0.0001797	1.23	0.989	0.816	0.697
x1 = 0.002378, x2 = 0.001257	1.243	1.006	0.832	0.715
x1 = 0.002383, x2 = 0.0007186	1.237	0.993	0.824	0.707
x1 = 0.002737, x2 = 0.0001797	1.244	1	0.826	0.705
x1 = 0.00275, x2 = 0.001256	1.257	1.018	0.842	0.723
x1 = 0.002759, x2 = 0.0007183	1.251	1.005	0.834	0.715
x1 = 0.003096, x2 = 0.001256	1.272	1.03	0.853	0.731
x1 = 0.003103, x2 = 0.0001796	1.258	1.012	0.836	0.713
x1 = 0.00311, x2 = 0.000718	1.265	1.019	0.845	0.723
x1 = 0.003471, x2 = 0.0001795	1.273	1.024	0.847	0.721
x1 = 0.003493, x2 = 0.001255	1.287	1.043	0.864	0.738
x1 = 0.003504, x2 = 0.0007178	1.28	1.033	0.856	0.731

CCCn1cc[n+](C)c1C.O=S(=O)([N-]S(=O)(=O)C(F)(F)F)C(F)(F)F + O=C1CCCO1
100 kPa, frequency 0.005 MHz
Details	electrical conductivity [S/m]
293.15 K, x2 = 0.2006	0.28
293.15 K, x2 = 0.6992	0.992
293.15 K, x2 = 0.8002	1.19
293.15 K, x2 = 0.8999	1.2
298.15 K, x2 = 0	0.265
303.15 K, x2 = 0.1289	0.395
303.15 K, x2 = 0.8508	1.5
308.15 K, x2 = 0.2006	0.537
308.15 K, x2 = 0.6992	1.41
308.15 K, x2 = 0.9495	1.11
313.15 K, x2 = 0.6992	1.57
313.15 K, x2 = 0.8508	1.77
313.15 K, x2 = 0.8999	1.68
318.15 K, x2 = 0.4952	1.32
323.15 K, x2 = 0.2006	0.864

CCCCCCCCCCCC[N+](C)(C)Cc1ccccc1.[Cl-] + CC(C)C[C@H](N)C(=O)O + O
electrical conductivity [S/m], 101 kPa
Details	293.15 K	298.15 K	303.15 K	308.15 K	313.15 K
x2 = 0.001798, x1 = 0.0001441	0.0541	0.0606	0.0671	0.074	0.0811
x2 = 0.001798, x1 = 0.0001691	0.061	0.068	0.0755	0.0833	0.0918
x2 = 0.001798, x1 = 0.0001949	0.0661	0.0738	0.0821	0.0911	0.101
x2 = 0.001798, x1 = 0.0002208	0.0704	0.0788	0.0879	0.0977	0.108
x2 = 0.001798, x1 = 0.0002443	0.0741	0.0832	0.0928	0.103	0.116
x2 = 0.001798, x1 = 0.0002664	0.0776	0.0872	0.0975	0.109	0.122
x2 = 0.001798, x1 = 0.0002864	0.0807	0.0908	0.102	0.114	0.127
x2 = 0.001798, x1 = 0.0003052	0.0838	0.0941	0.106	0.118	0.132
x2 = 0.001798, x1 = 0.0003239	0.0872	0.0976	0.11	0.123	0.137
x2 = 0.001799, x1 = 5.649e-05	0.0231	0.0258	0.0287	0.0317	0.0346
x2 = 0.001799, x1 = 7.89e-05	0.0314	0.035	0.0389	0.0428	0.0469
x2 = 0.001799, x1 = 9.986e-05	0.0387	0.0435	0.0482	0.0532	0.0582
x2 = 0.001799, x1 = 0.0001206	0.0462	0.0518	0.0574	0.0633	0.0693
x2 = 0.008927, x1 = 0.0002331	0.0722	0.0806	0.0896	0.0994	0.11
x2 = 0.008927, x1 = 0.0002565	0.0758	0.0847	0.0944	0.105	0.117
x2 = 0.008927, x1 = 0.0002782	0.079	0.0883	0.0986	0.11	0.122
x2 = 0.008927, x1 = 0.0002981	0.0818	0.0918	0.102	0.115	0.127
x2 = 0.008927, x1 = 0.0003168	0.0845	0.0949	0.106	0.119	0.132
x2 = 0.008927, x1 = 0.0003371	0.0874	0.0983	0.11	0.123	0.137
x2 = 0.008928, x1 = 0.0001252	0.0463	0.0518	0.0574	0.0633	0.0692
x2 = 0.008928, x1 = 0.0001513	0.0552	0.0616	0.0682	0.075	0.082
x2 = 0.008928, x1 = 0.000179	0.0627	0.0698	0.0773	0.0853	0.0937
x2 = 0.008928, x1 = 0.000207	0.068	0.0757	0.084	0.093	0.103
x2 = 0.008929, x1 = 5.804e-05	0.0225	0.0252	0.028	0.031	0.0339
x2 = 0.008929, x1 = 7.973e-05	0.0302	0.0339	0.0376	0.0414	0.0454
x2 = 0.008929, x1 = 0.0001014	0.038	0.0425	0.0472	0.0519	0.0568

CC[P+](CC)(CC)CCOC.O=S(=O)([N-]S(=O)(=O)C(F)(F)F)C(F)(F)F + O=S(=O)([N-]S(=O)(=O)C(F)(F)F)C(F)(F)F.[Li+]
101.33 kPa
Details	electrical conductivity, 298.2 K [S/m]	electrical conductivity, 312.2 K [S/m]	electrical conductivity, 361.3 K [S/m]	viscosity, 298.2 K [mPa·s]	viscosity, 355.3 K [mPa·s]
x2 = 0.25	1	–	–	170	17
x2 = 0.39	–	0.8	1.5	–	–

CC(O)C(C)O (configuration not stated) + CCCC[N+](C)(C)C.O=S(=O)([N-]S(=O)(=O)C(F)(F)F)C(F)(F)F
101 kPa
Details	viscosity [mPa·s]
323.15 K, x1 = 0.557	16.54
323.15 K, x1 = 0.6216	16.03
328.15 K, x1 = 0.557	13.6
333.15 K, x1 = 0.3137	15.23
333.15 K, x1 = 0.4515	13.1
333.15 K, x1 = 0.557	11.67
343.15 K, x1 = 1	6.7
